Source: ChEMBL document CHEMBL1201862, “PubChem BioAssay data set” (2004)
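How tested: cells in 96-well plates exposed to compound for 48 hours at five concentrations. GI50 marks 50% less growth.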 The source made the active and inactive calls. Cut-off read from the data, not from the text of the source: active = GI50 up to about 1.1 µM and inactive = higher.

Assays:
Assay in all cases: growth of human tumour cells (NCI), 48 h
[1] = system: 786-0
[2] = system: ACHN
[3] = system: CCRF-CEM
[4] = system: COLO 205
[5] = system: HCT-116
[6] = system: HOP-62
[7] = system: HOP-92
[8] = system: LOX IMVI
[9] = system: MDA-MB-435
[10] = system: NCI-H23
[11] = system: NCI-H522
[12] = system: RPMI-8226
[13] = system: RXF 393
[14] = system: SF-268
[15] = system: SF-295
[16] = system: SK-MEL-28
[17] = system: SK-OV-3
[18] = system: SNB-75
[19] = system: TK-10
[20] = system: UO-31

Measured: GI50

CCOC(=O)c1c[nH]c2cc3c(cc2c1=O)CCS3
inactive: [1] > 100 µM | [2] > 100 µM | [3] > 100 µM | [4] > 100 µM | [5] 37.9 µM | [6] > 100 µM | [7] > 100 µM | [8] > 100 µM | [9] > 100 µM | [10] > 100 µM | [11] > 100 µM | [12] > 100 µM | [13] 57.8 µM | [14] > 100 µM | [15] > 100 µM | [16] > 100 µM | [17] > 100 µM | [18] > 100 µM | [19] > 100 µM | [20] 83.9 µM

CCCN(CCc1ccc(-c2ccccc2)cc1)CCc1ccc2nn[nH]c2c1
inactive: [1] 11.7 µM | [2] 12.8 µM | [3] 4.26 µM | [4] 2.55 µM | [5] 4.66 µM | [6] 12.5 µM | [7] 5.37 µM | [8] 10.6 µM | [9] 8.93 µM | [10] 12.2 µM | [11] 11.8 µM | [12] 4.52 µM | [13] 12.2 µM | [14] 19.2 µM | [15] 12 µM | [16] 4.31 µM | [17] 14.2 µM | [18] 12.3 µM | [19] 11.5 µM | [20] 9.31 µM

COc1ccc(-c2cc(=O)c3c(OC)c(OC)c(OC)c(OC)c3o2)cc1 [TANGERETIN]
inactive: [1] 53.6 µM | [2] 57 µM | [3] 82.6 µM | [4] 55.7 µM | [5] 34 µM | [6] 82.6 µM | [7] 20.2 µM | [8] 52.2 µM | [9] 50.5 µM | [10] 43.3 µM | [11] 15.3 µM | [12] 67 µM | [13] 45.4 µM | [14] > 100 µM | [15] 55.3 µM | [16] > 100 µM | [17] 99.8 µM | [18] 46.8 µM | [19] 58.2 µM | [20] 37.5 µM

Cn1nnc2c(C(N)=O)ncn2c1=O [TEMOZOLOMIDE]
inactive: [1] > 100 µM | [2] > 100 µM | [3] 78.3 µM | [4] > 100 µM | [5] > 100 µM | [6] > 100 µM | [7] > 100 µM | [8] 82 µM | [9] > 100 µM | [10] > 100 µM | [11] > 100 µM | [12] > 100 µM | [13] > 100 µM | [14] > 100 µM | [15] > 100 µM | [16] > 100 µM | [17] 58.7 µM | [18] 71 µM | [19] > 100 µM | [20] > 74 µM
